This assay deals with T1, Bet bromodomain protein (BRD4) (Homo sapiens, UniProt O60885).
T1 construct: made in house
Briefly: Bet bromodomain TR-FRET assay. The conditions noted are these: 300 nM acetyl histone peptide substrate, results given as Group A/B/C. In kind it is binding. As to the method:
In-Vitro Biochemical Data of bicyclic heterocyclic derivatives in time-resolved fluorescence resonance energy transfer (TR-FRET) assay.
The Bet brommodomain TR-FRET assay has been used to identify compounds that bind to bet bromodomain and prevent its interaction with acetylated histone peptides.
In the assay, optimized concentration of in-house Bet bromodomain protein (BRD4) and 300 nM of acetyl histone peptide substrate were diluted in assay buffer (50 mM HEPES, pH: 7.5, 50 mM NaCl, 500 μM CHAPS) and were added to the positive control and test control wells in a 384 well plate. Substrate control wells have 300 nM of acetyl histone peptide substrate diluted in assay buffer. Buffer blank wells were added with assay buffer. The reaction mixture was allowed for incubation at room temperature for 30 mins. Stock solutions of test compounds at 20 mM DMSO are prepared. Compounds are serially diluted and added to the test wells in 384-well polypropylene plates. The reaction mixture was further incubated for 30 mins at room temperature on a plate shaker. 2 nM of Europium labeled streptavidn and 10 nM of XL-665 labeled antibody diluted in detection buffer (50 mM HEPES, pH: 7.5, 50 mM NaCl, 500 μM CHAPS and 800 mM KF) were added to all the wells excluding the buffer blank wells. The reaction plate was incubated for additional 30 mins at room temperature on plate shaker. The plate was read in Perkin Elmer WALLAC 1420 Multilabel Counter Victor 3 (Ex: 340 nm Em: 615 and 665 nm). The amount of displacement of the peptide was measured as ratio of specific 665 nm energy transfer signal to 615 nm signals. The compounds IC50 was determined by fitting the dose response data to sigmoid curve fitting equation using Graph Pad Prism software V5.

The structures appear in SMILES notation. A value given as a limit tells only on which side of the number the result lay.

In the case of `COc1cc2c(ccc(=O)n2C(C)c2ccccn2)cc1-c1c(C)noc1C` (stereo not drawn) [Compound 40, 6-(3,5-dimethytisoxazol-4-yl)-7-methoxy-1-(1-(pyridin-2-yl)ethyl)quinolin-2(1H)-one], the IC50 is ≤ 1000 nM.
For the molecule `COc1cc2c(ccc(=O)n2Cc2cccnc2)cc1-c1c(C)noc1C` [Compound 36, 6-(3,5-dimethylisoxazol-4-yl)-7-methoxy-1-(pyridin-3-ylmethyl)quinolin-2(1H)-one], the IC50 is ≤ 1000 nM.
With `COc1cc2c(cc1-c1c(C)noc1C)OCC(=O)N2Cc1ccc(O)nc1` [Compound 70], the IC50 is > 3000 nM.
Then `COc1cc2c(ccc(=O)n2Cc2ccccn2)cc1C1=C(C)C(=O)NC1=O` [Compound 92, 3-(7-methoxy-2-oxo-1-(pyridin-2-ylmethyl)-1,2-dihydroquinolin-6-yl)-4-methyl-1H-pyrrole-2,5-dione], with > 3000 nM; and `COc1cc2c(cc1-c1c(C)noc1C)OCC(=O)N2C(C)c1ccncc1` (single isomer, unassigned) [Compound 19, 7-(3,5-dimethylisoxazol-4-yl)-6-methoxy-4-(1-(pyridin-4-yl)ethyl)-2H-benzo[b][1,4]oxazin-3(4H)-one], with > 3000 nM; and `Cc1noc(C)c1-c1cc2ccc(=O)n(Cc3ccccn3)c2cc1OCC1CCOCC1` [Compound 87, 6-(3,5-dimethylisoxazol-4-yl)-1-(pyridin-2-ylmethyl)-7-((tetrahydro-2H-pyran-4-yl)methoxy)quinolin-2(1H)-one], with 1000 to 3000 nM.
`COc1cc2c(cc1-c1c(C)noc1C)OCCN2S(=O)(=O)c1cccc(Cl)c1` [Compound 11, 4-((3-chlorophenyl)sulfonyl)-7-(3,5-dimethylisoxazol-4-yl)-6-methoxy-3,4-dihydro-2H-benzo[b][1,4]oxazine]: the IC50 fell in the range of 1000 to 3000 nM.
As to `COc1cc2c(ccc(=O)n2CCc2ccccn2)cc1-c1c(C)noc1C` [Compound 42, 6-(3,5-dimethylisoxazol-4-yl)-7-methoxy-1-(2-(pyridin-2-yl)ethyl)quinolin-2(1H)-one], the IC50 is 1000 to 3000 nM.
`COc1cc2c(cc1-c1c(C)n[nH]c1C)OCC(=O)N2Cc1ccc(Cl)cc1` [Compound 65, 4-(4-chlorobenzyl)-7-(3,5-dimethyl-1H-pyrazol-4-yl)-6-methoxy-2H-benzo[b][1,4]oxazin-3(4H)-one]: the IC50 is ≤ 1000 nM.
Consider `COc1cc2c(cc1-c1c(C)noc1C)cc(CC#N)c(=O)n2CCc1ccc(Cl)cc1` [Compound 106, 2-(1-(4-chlorophenethyl)-6-(3,5-dimethylisoxazol-4-yl)-7-methoxy-2-oxo-1,2-dihydroquinolin-3-yl)acetonitrile], for which the IC50 is ≤ 1000 nM.
The result for `COc1cc2c(ccc(=O)n2CCN2CCOCC2)cc1-c1c(C)noc1C` [Compound 38, 6-(3,5-dimethylisoxazol-4-yl)-7-methoxy-1-(2-morpholinoethyl)quinolin-2(1H)-one] reads ≤ 1000 nM; that for `COc1cc2c(cc1-c1c(C)noc1C)OCC(=O)N2C(C)c1cccnc1` (single isomer, unassigned) [Compound 25, 7-(3,5-dimethytisoxazol-4-yl)-6-methoxy-4-(1-(pyridin-3-yl)ethyl)-2H-benzo[b][1,4]oxazin-3(4H)-one], 1000 to 3000 nM.
The result for `Cc1noc(C)c1-c1cc2ccc(=O)n(Cc3ccccn3)c2cc1OCCN1CCOCC1` [Compound 75, 6-(3,5-dimethylisoxazol-4-yl)-7-(2-morpholinoethoxy)-1-(pyridin-2-ylmethyl)quinolin-2(1H)-one] reads 1000 to 3000 nM.
Then `COc1cc2c(ccc(=O)n2C(C)c2cccnc2)cc1-c1c(C)noc1C` (stereo not drawn) [Compound 41, 6-(3,5-dimethylisoxazol-4-yl)-7-methoxy-1-(1-(pyridin-3-yl)ethyl)quinolin-2(1H)-one], with ≤ 1000 nM; and `COc1cc2c(cc1-c1c(C)noc1C)C(C)(C)CC(=O)N2Cc1ccccn1` [Compound 48, 6-(3,5-dimethylisoxazol-4-yl)-7-methoxy-4,4-dimethyl-1-(pyridin-2-ylmethyl)-3,4-dihydroquinolin-2(1H)-one], with > 3000 nM; and `COc1cc2c(cc1-c1c(C)noc1C)OCC(=O)N2CC1CCNCC1` [Compound 60, 7-(3,5-dimethylisoxazol-4-yl)-6-methoxy-4-(piperidin-4-ylmethyl)-2H-benzo[b][1,4]oxazin-3(4H)-one], with > 3000 nM.
As to `COc1cc2c(ccc(=O)n2Cc2ccccn2)cc1-c1ccc(O)nc1` [Compound 61, 6-(6-hydroxypyridin-3-yl)-7-methoxy-1-(pyridin-2-ylmethyl)quinolin-2(1H)-one], the IC50 was > 3000 nM.
Regarding `COc1cc2c(cc1-c1c(C)noc1C)OCCN2C(C)c1ccc(Cl)cc1` (stereo not drawn) [Compound 6, 4-(1-(4-chlorophenyl)ethyl)-7-(3,5-dimethylisoxazol-4-yl)-6-methoxy-3,4-dihydro-2H-benzo[b][1,4]oxazine], the IC50 was > 3000 nM.
Take `COc1cc2c(cc1-c1c(C)noc1C)OCC(=O)N2C(C)c1ccccn1` (stereo not drawn) [Compound 31]: the IC50 fell in the range of 1000 to 3000 nM.
For `COc1cc2c(cc1-c1c(C)noc1C)OCCN2C(C)c1cccnc1` (stereo not drawn) [Compound 7, 7-(3,5-dimethylisoxazol-4-yl)-6-methoxy-4-(1-(pyridin-3-yl)ethyl)-3,4-dihydro-2H-benzo[b][1,4]oxazine], the IC50 is ≤ 1000 nM.
As for `COc1cc2c(cc1-c1c(C)noc1C)cc(C(O)(O)C(F)(F)F)c(=O)n2Cc1ccccn1` [Compound 104, 6-(3,5-dimethylisoxazol-4-yl)-7-methoxy-1-(pyridin-2-ylmethyl)-3-(2,2,2-trifluoro-1,1-dihydroxyethyl)quinolin-2(1H)-one], the IC50 is ≤ 1000 nM.
With `COc1cc2c(ccc(=O)n2Cc2ccc(C(F)(F)F)cn2)cc1-c1c(C)noc1C` [Compound 47, 6-(3,5-dimethylisoxazol-4-yl)-7-methoxy-1-((5-(trifluoromethyl)pyridin-2-yl)methyl)quinolin-2(1H)-one], the IC50 is ≤ 1000 nM.
As to `COc1cc2c(ccc(=O)n2Cc2ccc(-c3cnn(C)c3)cn2)cc1-c1c(C)noc1C` [Compound 98, 6-(3,5-dimethylisoxazol-4-yl)-7-methoxy-1-((5-(1-methyl-1H-pyrazol-4-yl)pyridin-2-yl)methyl)quinolin-2(1H)-one], the IC50 is ≤ 1000 nM.
The result for `COc1cc2c(ccc(=O)n2S(=O)(=O)c2ccc(Cl)cc2)cc1-c1c(C)noc1C` [Compound 14, 1-((4-chlorophenyl)sulfonyl)-6-(3,5-dimethylisoxazol-4-yl)-7-methoxyquinolin-2(1H)-one] reads > 3000 nM; that for `COc1cc2c(cc1-c1c(C)noc1C)cc(C(O)C(F)(F)F)c(=O)n2Cc1ccccn1` (single isomer, unassigned) [Compound 102, 6-(3,5-dimethylisoxazol-4-yl)-7-methoxy-1-(pyridin-2-ylmethyl)-3-(2,2,2-trifluoro-1-hydroxyethyl)quinolin-2(1H)-one], ≤ 1000 nM; that for `COc1ccc(CN2C(=O)COc3cc(-c4c(C)noc4C)c(OC)cc32)nc1` [Compound 30, 7-(3,5-dimethylisoxazol-4-yl)-6-methoxy-4-((5-methoxypyridin-2-yl)methyl)-2H-benzo[b][1,4]oxazin-3(4H)-one], 1000 to 3000 nM.
For `Cc1noc(C)c1-c1cc2ccc(=O)n(Cc3ccccn3)c2cc1OCC(F)(F)F` [Compound 74, 6-(3,5-dimethylisoxazol-4-yl)-1-(pyridin-2-ylmethyl)-7-(2,2,2-trifluoroethoxy)quinolin-2(1H)-one], the IC50 was ≤ 1000 nM.
`COc1cc2c(cc1-c1c(C)noc1C)OCC(=O)N2CCc1ccccn1` [Compound 35, 7-(3,5-dimethylisoxazol-4-yl)-6-methoxy-4-(2-(pyridin-2-yl)ethyl)-2H-benzo[b][1,4]oxazin-3(4H)-one] yielded an IC50 of 1000 to 3000 nM.
The molecule `Cc1noc(C)c1-c1cc2ccc(=O)n(Cc3ccccn3)c2cc1OCCN1CCNCC1` [Compound 82, 6-(3,5-dimethylisoxazol-4-yl)-7-(2-(piperazin-1-yl)ethoxy)-1-(pyridin-2-ylmethyl)quinolin-2(1H)-one] had an IC50 of 1000 to 3000 nM.
As to `COc1cc2c(cc1-c1c(C)noc1C)cc(C)c(=O)n2CCc1ccc(Cl)cc1` [Compound 59, 1-(4-chlorophenethyl)-6-(3,5-dimethylisoxazol-4-yl)-7-methoxy-3-methylquinolin-2(1H)-one], the IC50 is ≤ 1000 nM.
For `COCCOc1cc2c(cc1-c1c(C)noc1C)OCC(=O)N2Cc1ccncc1` [Compound 71, 7-(3,5-dimethylisoxazol-4-yl)-6-(2-methoxyethoxy)-4-(pyridin-4-ylmethyl)-2H-benzo[b][1,4]oxazin-3(4H)-one], the IC50 was > 3000 nM.
With `COc1cc2c(ccc(=O)n2Cc2nccs2)cc1-c1c(C)noc1C` [Compound 39, 6-(3,5-dimethylisoxazol-4-yl)-7-methoxy-1-(thiazol-2-ylmethyl)quinolin-2(1H)-one], the IC50 is ≤ 1000 nM.
Regarding `COc1cc2c(cc1-c1c(C)noc1C)OCCN2Cc1ccccc1N` [Compound 16, 2-((7-(3,5-dimethylisoxazol-4-yl)-6-methoxy-2H-benzo[b][1,4]oxazin-4(3H)-yl)methyl)aniline], the IC50 was ≤ 1000 nM.

The values are drawn from patent US10590118B2, “Bicyclic heterocyclic derivatives as bromodomain inhibitors” (Orion Corporation, priority 2014, dated 2020).
